Structures are written as SMILES. Where a name gives a salt, the structure may show the parent alone.

Data set [1] can be described thus: Solubility in ethanol water mixture. As to conditions: both crystal forms. Type of data set: physicochemical.
For data set [2] the following is noted: oral dosing in human patients; cited from earlier work.

As for `CN1CC2c3ccccc3Oc3ccc(Cl)cc3C2C1` (centres unmarked) [Asenapine maleate], in data set [1], the Solubility result is on record as “good solubility”.
Regarding `CN1C[C@H]2c3ccccc3Oc3ccc(Cl)cc3[C@@H]2C1` (relative stereo) [Asenapine, trans-5-chloro-2-methyl-2,3,3a, 12b-tetrahydro-1 H-dibenz[2,3:6,7]oxepino-[4,5-c]pyrrole], the “Side effects of oral dosing” value in data set [2] is on record as “serious cardiotoxic side effects including postural hypotension”.

The record behind these values is patent US10085971B2, “Pharmaceutical solution of asenapine for sublingual or buccal use” (Navinta III Inc, priority 2016, dated 2018).
